Measurements: ChEMBL document CHEMBL1255529, “Design, synthesis, and anticancer activities of novel perfluoroalkyltriazole-appended 2'-deoxyuridines” (Bioorg Med Chem Lett, 2010)

Columns and labels:
ACHN = assay: Anticancer activity against human ACHN cells by SRB assay; format: functional; settings: for GI50: Homo sapiens, ACHN
PC-3 = assay: Anticancer activity against human PC3 cells by SRB assay; format: functional; settings: for GI50: Homo sapiens, PC-3
MDA-MB-231 = assay: Anticancer activity against human MDA-MB-231 cells by SRB assay; format: functional; settings: for GI50: Homo sapiens, MDA-MB-231
[1] = Antiproliferative activity against human CCD-33Lu

| GI50 (ACHN) | GI50 (PC-3) | GI50 (MDA-MB-231) | SMILES | GI (ACHN) | GI (PC-3) | GI (MDA-MB-231) | Activity [1] |
| --- | --- | --- | --- | --- | --- | --- | --- |
| – | – | – | CC(=O)OC[C@H]1O[C@@H](n2cc(-c3cn(CCC(F)(F)C(F)(F)C(F)(F)C(F)(F)C(F)(F)C(F)(F)F)nn3)c(=O)[nH]c2=O)C[C@@H]1OC(C)=O | 113.8 µM | 89.4 µM | 99.4 µM | – |
| – | – | – | CC(=O)OC[C@H]1O[C@@H](n2cc(-c3cn(CCC(F)(F)C(F)(F)C(F)(F)C(F)(F)C(F)(F)C(F)(F)C(F)(F)C(F)(F)F)nn3)c(=O)[nH]c2=O)C[C@@H]1OC(C)=O | 110.8 µM | 77.9 µM | 99.1 µM | – |
| – | – | – | O=c1[nH]c(=O)n([C@H]2C[C@H](O)[C@@H](CO)O2)cc1-c1cn(CCC(F)(F)C(F)(F)C(F)(F)C(F)(F)C(F)(F)C(F)(F)F)nn1 | 99.3 µM | 114.5 µM | 106.5 µM | – |
| 8.24 µM | 7.75 µM | 8.67 µM | O=c1[nH]c(=O)n([C@H]2C[C@H](O)[C@@H](CO)O2)cc1-c1cn(CCC(F)(F)C(F)(F)C(F)(F)C(F)(F)C(F)(F)C(F)(F)C(F)(F)C(F)(F)F)nn1 | 14.2 µM | 16.7 µM | 15.9 µM | Non-toxic |
| – | – | – | O=c1[nH]c(=O)n([C@H]2C[C@H](O)[C@@H](CO)O2)cc1-c1cn(CCC(F)(F)C(F)(F)C(F)(F)C(F)(F)C(F)(F)C(F)(F)C(F)(F)C(F)(F)C(F)(F)C(F)(F)F)nn1 | 90.8 µM | 89.4 µM | 93.7 µM | – |
| – | – | – | O=c1[nH]c(=O)n([C@H]2C[C@H](O)[C@@H](CO)O2)cc1-c1cn(CCC(F)(F)C(F)(F)F)nn1 | 96.1 µM | 96.4 µM | 98.7 µM | – |
| – | – | – | O=c1[nH]c(=O)n([C@H]2C[C@H](O)[C@@H](CO)O2)cc1-c1cn(CCC(F)(F)C(F)(F)C(F)(F)C(F)(F)F)nn1 | 116 µM | 97.8 µM | 109.7 µM | – |
| 0.22 µM | 0.28 µM | 0.18 µM | COc1cccc2c1C(=O)c1c(O)c3c(c(O)c1C2=O)C[C@@](O)(C(=O)CO)C[C@@H]3O[C@H]1C[C@H](N)[C@H](O)[C@H](C)O1 [DOXORUBICIN] | 12.3 µM | 28.5 µM | 16.5 µM | – |
| 2.1 µM | 4.97 µM | 0.16 µM | O=c1[nH]c(=O)n([C@H]2C[C@H](O)[C@@H](CO)O2)cc1F [FLOXURIDINE] | 25.8 µM | 40.7 µM | – | – |
